Reference: publication PMC11243672, “New 3-(Dibenzyloxyphosphoryl)isoxazolidine Conjugates of N1-Benzylated Quinazoline-2,4-diones as Potential Cytotoxic Agents against Cancer Cell Lines” (Molecules, 2024)
≈ marks a conversion by molar mass, not a printed value. Entries after “also recorded” stand apart in the source; their conditions may differ.

Legend:
[1] = system: PARP1 (poly(ADP-ribose)polymerase 1); set-up: method as in PMID 37843892; conditions: cited from earlier work
[2] = system: PARP2 (poly(ADP-ribose)polymerase 2); set-up: method as in PMID 37843892; conditions: cited from earlier work
Jurkat cell line = system: Jurkat cell line; set-up: method as in PMID 20813537; conditions: antitumor effect; cited from earlier work
[3] = system: murine leukemia cell line (L1210); conditions: cytotoxicity; cited from earlier work
[4] = system: epidermoid carcinoma cell line (KB); conditions: cytotoxicity; cited from earlier work
HepG2 = system: HepG2; set-up: method as in PMID 32510731; conditions: antiproliferative activity; cited from earlier work
HCT-116 [5] = system: HCT-116; set-up: method as in PMID 32510731; conditions: antiproliferative activity; cited from earlier work
MCF-7 = system: MCF-7; set-up: method as in PMID 32510731; conditions: antiproliferative activity; cited from earlier work
[6] = system: breast cancer cells (MCF-7); experiment: MTS-based cytotoxicity assay, MCF-7; format: cell-based, human; conditions: Homo sapiens, MCF7, 72 h, 72 h treatment, 0.205–50 μM, mean ± SEM
Method: (§1) In this study, we applied the most extensively used MTS-based assay, which provides a valuable tool for determining cell viability by evaluating metabolic activity. The cytostatic activity of the tested compounds was defined as the half-maximal inhibitory concentration (IC50) causing a 50% decrease in the metabolic activity of the cells. It was determined against breast cancer (MCF-7), fibrosarcoma (HT-1080), and prostate cancer (PC-3) cells.
(§2) The tested compounds were tested against three different human cancer cell lines (breast adenocarcinoma MCF-7 ATCC® HTB-22^TM, fibrosarcoma HT-1080 ATCC® CCL121^TM, and prostate adenocarcinoma PC-3 ATCC® CRL-1435^TM). For the cell viability experiment, cells were seeded in transparent 96-well plates (FALCON no. 353072, Corning, Durham, NC, USA) in MEM (Gibco no. 31095-029, UK) supplemented with 10% heat-inactivated FBS (Gibco no. 10500-064, UK). The cell seeding density was as follows: MCF-7 12,000 cells/well, HT-1080 7000 cells/well, PC-3 10,000 cells/well. Cells were seeded one day before treatment with the tested compounds and cultured overnight. The confluence on the treatment day was around 30%. The tested compounds were dissolved in DMSO as 10 mM stock solutions and kept under −4 °C. On the day of experimentation, the medium was removed and replaced with a fresh one that contained the following: (1) dimethylsulfoxide (DMSO < 0.1%, vehicle control (Veh)); (2) increasing the concentration of compounds (0.205–50 μM, performed as a 2.5-fold serial dilution for dose–response analysis). Treatment with compounds was carried out for 72 h. Each treatment was replicated three times in a single experiment, with three separate experiments conducted. (n = 9). When significant variability in the results occurred, an additional test was performed on certain compounds. During the incubation, the cells were examined under an inverted microscope to check if the compounds had not precipitated in the culture medium. The inhibitory effect of compounds on the cell was examined using an MTS-based assay (Promega, Madison, WI, USA) following the manufacturer’s protocol. The absorbance was measured at 490 nm using Tecan Spark’s multimode plate reader (Tecan, Männedorf, Switzerland). A reference wavelength of 630 nm was used to subtract the background. IC50 values were calculated by fitting a non-linear regression to a sigmoidal dose–response curve in GraphPad Prism version 8.0.1.

[7] = system: fibrosarcoma cells (HT-1080); experiment: MTS-based cytotoxicity assay, HT-1080; format: cell-based, human; conditions: Homo sapiens, HT-1080, 72 h, 72 h treatment, 0.205–50 μM, mean ± SEM
Method: as §1, §2

[8] = system: prostate cancer cells (PC-3); experiment: MTS-based cytotoxicity assay, PC-3; format: cell-based, human; conditions: Homo sapiens, 72 h, 72 h treatment, 0.205–50 μM, mean ± SEM
Method: as §1, §2

PC-3 cell line = experiment: IncuCyte caspase-3/7 apoptosis induction assay; format: cell-based, human; conditions: PC-3 cells, tested at 1 µM and 10 µM, monitored for 28 h; staurosporine 1 µM positive control
Method: Apoptosis induction tests were conducted using the IncuCyte system to test cells (PC-3) in an in vitro culture. […] The compounds were tested at 1 µM and 10 µM concentrations, and apoptosis was monitored for 28 h (Figure 6). The incubation time was selected based on the induction of apoptosis in the control cells. Staurosporine (STA) at a concentration of 1 µM was used as the positive control, while the negative control cells were treated with 0.1% DMSO (vehicle control). […].
Apoptosis was monitored in real time using the Incucyte® Caspase-3/7 for […] Dyes (Cat. No. 4776, Sartorius, Ann Arbor, MI, USA). The principle of this test is based on binding a DNA intercalating dye with the activation motif (DEVD) of caspase-3/7, allowing a quantitative analysis of cells to undergo caspase-3/7-mediated apoptosis in real time. For the experiment, PC3 cells were seeded in a black 96-well plate with transparent bottom (cat. no. 165305, ThermoScientific, Waltham, MA, USA) at 10,000 cells/well density and cultured overnight. The next day, the medium was removed, and the cells were treated with the tested compound. […] The IncuCyte S3 imaging system recorded kinetic measures of the number of caspase-3/7 positive cells. Repeat scanning to record phase and fluorescence images were every 2 h, for up to 28 h. […]

[9] = system: human embryonic kidney cells (HEK293); experiment: Safety study in vitro (MTS viability), HEK293; format: cell-based; conditions: 0.205–50 μM, 72 h
Method: (§3) In drug development, particular attention should be paid to studying the safety profile of compounds. Promising drug candidates should not cause adverse effects on essential organ systems like the liver, kidney, or healthy cells in general. Systemic toxicity of the compound is the main factor limiting its therapeutic application and efficiency. In our study, a preliminary study on nephrotoxicity and hepatotoxicity was evaluated in human embryonic kidney cells (HEK293, ATCC® CRL1573™) and human hepatoma cells (HepG2, ATCC® HB8065™), respectively. HEK293 is commonly used to evaluate the cytotoxicity of nephrotoxic compounds [42]. HepG2 is a well-established in vitro human cell system to study liver toxicity. We also used healthy human skin fibroblast (HSF) to extend the cytotoxicity profile. All three cell lines were cultured in DMEM (Gibco no. 61965-026, UK) supplemented with 10% FBS (Gibco no. 10500-064, UK). For the experiment, cells were seeded (8 × 10^3 cells/100μL/well) in transparent 96-well plates (FALCON no. 353072, Corning, Durham, […], USA) and cultured overnight. […] DOX was a reference compound that adversely affected the liver, kidney, and healthy cells. Treatment with compounds was carried out for 72 h. Cell viability was examined using an MTS-based CellTiter96® AQueous One Solution Cell Proliferation Assay (Promega, Madison, WI, USA) following the manufacturer’s protocol.

[10] = system: human hepatoma cells (HepG2); experiment: Safety study in vitro (MTS viability), HepG2; format: cell-based; conditions: 0.205–50 μM, 72 h
Method: as §3

[11] = system: human skin fibroblast (HSF); experiment: Safety study in vitro (MTS viability), HSF; format: cell-based; conditions: 0.205–50 μM, 72 h
Method: as §3

HCT-116 [12] = system: HCT-116; set-up: method as in PMID 37903949; conditions: cytotoxic activity; cited from earlier work
[13] = system: colorectal adenoma cancer cell line (HT-29); set-up: method as in doi:10.1016/j.tet.2006.12.076; conditions: cancer cell line growth inhibition; cited from earlier work
[14] = system: breast cancer cell line (MCF-7); set-up: method as in doi:10.1016/j.tet.2006.12.076; conditions: cancer cell line growth inhibition; cited from earlier work
[15] = system: human lymphocyte cell line (CEM); set-up: method as in PMID 30060562; conditions: anticancer activity; cited from earlier work

In the case of `O=C(c1cc(Cn2c(=O)[nH]c(=O)c3ccccc32)ccc1F)N1CCN(C2CCCC2)C(=O)C1` [Compound 15], the PARP1 inhibition [1] is given as “inhibited” and the PARP2 inhibition [2] is given as “inhibited”.

For `Cc1cn(C2CC(c3ccccc3Cl)N(C)O2)c(=O)[nH]c1=O` (stereo not shown) [Compound 5], the IC50 (Jurkat cell line) is listed as 8.8 ± 4.4 µM.

For `C(=C/CCCCN1OC(CCCCCCCCc2cccnc2)C2CCCC21)/CCCCCCCCCc1cccnc1` (stereo not shown) [pyrinodemin A], the “IC50, L1210” value [3] is listed as 0.058 µg/mL (≈ 0.0987 µM) and the “IC50, KB” value [4] is listed as 0.5 µg/mL (≈ 0.85 µM).

For `O=C(Cn1c(=O)c2ccccc2n(Cc2ccccc2)c1=O)Nc1ccc(C(=O)N/N=C/c2ccc(Cl)cc2)cc1` [Compound 14], the GI50 (HepG2) is listed as 9.16 ± 0.8 µM, the GI50 (HCT-116 [5]) is listed as 5.69 ± 0.4 µM and the GI50 (MCF-7) is listed as 5.27 ± 0.2 µM.

In the case of `O=c1c2ccccc2n(C[C@@H]2C[C@@H](P(=O)(OCc3ccccc3)OCc3ccccc3)N(Cc3ccccc3)O2)c(=O)n1Cc1ccccc1F` (relative stereo) [trans-16b, Dibenzyl cis- and trans-5-((3-(2-fluorobenzyl)-3,4-dihydro-2,4-dioxoquinazolin-1(2H)-yl)methyl)-2-benzylisoxazolidin-3-yl-3-phosphonate], the IC50 [6] is reported as 78.7 ± 2.35 µM, the IC50 [7] is reported as 34.6 ± 5.3 µM and the IC50 [8] is reported as 9.84 ± 3.69 µM. For the same compound, the “Induction of apoptosis (caspase-3/7 positive cells)” value (PC-3 cell line) was “comparable to that induced with staurosporine; also recorded: highest induction of apoptosis; also recorded: strongly induced apoptosis”, the “Cell viability, HEK293” value [9] was “did not affect cell viability” and the “Cell viability, HepG2” value [10] was “did not affect cell viability”. For the same compound, the “Cell viability, HSF” value [11] was “no adverse effect was observed”.

In the case of `COc1cc2nccc(Oc3ccc(NC(=O)C4(C(=O)Nc5ccc(F)cc5)CC4)cc3)c2cc1OC` [cabozantinib, reference compound], the IC50 (HCT-116 [12]) is given as 16.4 ± 0.86 µM.

For `O=c1[nH]cc(F)c(=O)[nH]1` [5-Fluorouracil], the “GI, HT-29” value [13] is listed as 34%, the “GI, MCF-7” value [14] is listed as 31% and the IC50 [15] is listed as 18 ± 5 µM.
